# Reference: patent US6727401B1, “Pressure sensitive adhesive matrix patch for the treatment of onychomycosis” (Watson Pharmaceuticals, Inc., priority 1998, dated 2004)
# Experiments:
# [1] = Amount of drug retained in the nail after matrix patch application; format: in vitro ADME; settings: human, 48 hours
# Protocol: (§1) In vitro human cadaver nail flux studies were conducted using modified Franz non-jacketed permeation cells. The temperature of the nail surface was maintained at 32° C. by placing the cells in a circulating water bath positioned over a stirring module. Human finger nail or toe nail was stored under frozen conditions in 0.02% (w/v) sodium azide solution. Nails that were greater than 1 cm^2 in area were used for the flux studies. Nails with dorsal side facing the donor compartment were sandwiched between two layers of a closed cell polyethylene foam film. Annular ring of 2.38 cm outer diameter and 0.95 cm inner diameter was cut from the backing film. The area of the donut hole (0.97 cm^2) is large enough to provide complete contact with the receiver media. The purpose of the foam backing film was to prevent any leakage of receiver medium from the cell assembly. The nails were allowed to hydrate at 32° C. overnight with 0.02% (w/v) sodium azide solution in the receiver compartment. The following morning, 0.71 cm^2 circular matrix patches were laminated onto the dorsal side of the nail. Each nail matrix sandwich was then loaded between the donor and receiver compartments of a diffusion cell, with the ventral side of nail facing the receiver compartment, and clamped in place.
# The remaining portion of nail was also dried, weighed, extracted in dimethyl sulfoxide and analyzed for drug content.
# [2] = In vitro human cadaver nail flux study, modified Franz cells, matrix patch; format: in vitro ADME
# Protocol: The cumulative amount of drug permeated per unit area at any time t(Qt, μg/cm^2) was determined as follows: [formula]
# where Cn is the concentration (μg/ml) of the drug in the receiver sample for the corresponding sample time, V is the volume of fluid in the receiver chamber (˜6.3 cm^3), and A is the diffusion area of the cell (0.64 cm^2).
# as §1
# [3] = In vitro human cadaver skin flux study, modified Franz cells; format: in vitro ADME
# Protocol: In vitro human cadaver skin flux studies were conducted using modified Franz non-jacketed permeation cells. The temperature of the skin surface was maintained at 32° C. by placing the cells in a circulating water bath positioned over a stirring module. The epidermal membrane was separated from the dermatomed human cadaver skin by the heat-separation method of Kligman and Christopher (Arch. Dermatol. 88:702 (1963)) involving the exposure of the full thickness skin to 60° C. heat for 60 seconds, after which time the stratum corneum and the epidermis (epidermal membrane) were gently peeled off the dermis.
# For a matrix skin flux study, the heat separated human epidermal membrane was cut into rectangular strips. The matrix was cut into 0.71 cm^2 circular discs. […] At predetermined sampling intervals, the entire contents of the receiver compartment were collected for drug quantitation and the receiver compartment was filled with fresh receiver solution, taking care to eliminate any air bubbles at the skin/solution interface.
# For the topical gel study, included for illustration purposes, a thin film of gel approximately 10 μl/cm^2, was applied to the stratum-corneum surface of a hydrated piece of human cadaver skin. […] At predetermined sampling intervals, the entire contents of the receiver compartment were collected for drug quantitation. […]
# [4] = Amount of drug retained in the skin after matrix patch application; settings: patch at 24 hours versus day 1 after oral administration
# [5] = long term, high dose systemic therapy, cited from earlier work
compound,measurement,setting,value
Clc1ccccc1C(c1ccccc1)(c1ccccc1)n1ccnc1 [clotrimazole],amount of drug retained in the nail per unit dry weight of nail,[1],greater than 500 μg/g
same,permeation across the nail,[2],no permeation
same,skin flux without an enhancer,[3],below the detection limit
OC(Cn1cncn1)(Cn1cncn1)c1ccc(F)cc1F [fluconazole],times higher amount of fluconazole in the skin compared to oral administration,[4],500-600 times
same,times higher amount of drug in the nail after patch application compared to reported oral administration,[1],1000-2000 times
same,permeation across the nail,[2],no permeation
CC(=O)N1CCN(c2ccc(OCC3COC(Cn4ccnc4)(c4ccc(Cl)cc4Cl)O3)cc2)CC1 (centres unmarked) [ketoconazole],reported liver toxicity,[5],liver toxicity effects
same,reported effect on testosterone levels in blood,[5]; due to adverse effects on the testes,reduces testosterone levels in blood
same,effect of the presence of an enhancer on skin flux,"[3]; enhancer lauramide-DEA, acrylic pressure sensitive adhesive",doubles the flux
CN(C/C=C/C#CC(C)(C)C)Cc1cccc2ccccc12 [terbinafine],times higher amount of drug in the nail after patch application compared to reported oral administration,[1],100-1000 times
same,permeation across the nail,[2],no permeation
